Measurements reported in ChEMBL document CHEMBL3507680, “University of Dundee, Gates Library screen for HepG2 cell viability”.

Assay: Human HepG2 cell viability assay in 384 well format
Format: toxicity, cell-based
Design: dose 125 nL, time 70.5 hour; cytotoxicity at 70.5 h: concentration not given beside the values
Details: HepG2 cells, read-out: Inhibition

Row | SMILES | cytotoxicity at 70.5 h
1 | O=C(NCN1CCc2ccccc2C1)c1cnccn1 | -8.88%
2 | Cc1cc(C)n(-c2ccc(C(=O)N3CCCC3c3cnn(C)c3)cc2)n1 (configuration not stated) | -5.54%
3 | C[S+]([O-])c1nncn1CCCc1ccc(Cl)cc1 (configuration not stated) | -2.94%
4 | CCCC(=O)N1CCCCC1C(=O)Nc1ccc(-c2nnc[nH]2)cc1 (configuration not stated) | -5.35%
5 | CCC(C)C(=O)NCCc1nc(C(F)(F)F)cs1 (configuration not stated) | -6.38%
6 | CC(NC(=O)NCCc1nc(C(F)(F)F)cs1)C(=O)N(C)C (configuration not stated) | -7.19%
7 | CC(C)C(O)CNC(=O)Nc1cnn(Cc2ccccc2)c1 (configuration not stated) | -1.15%
8 | CC(C)CN1C(=O)C2(CCCC2)NC1c1cn(C)c(=O)n(C)c1=O (configuration not stated) | 0.777%
9 | Cc1cccc(Sc2nccn(C)c2=O)c1 | -13.8%
10 | Cc1ccc(Sc2nccn(C)c2=O)cc1 | -3.35%
11 | Cn1ccnc(Sc2ccccc2)c1=O | -9.9%
12 | CC(=O)c1ccc(CNC(=O)c2c(C)cc(C)cc2C)nc1C | 3.34%
13 | CC(C)N(C)CC(=O)N(C)Cc1nc(C(F)(F)F)cs1 | 2.33%
14 | CSC1(CNC(=O)CCc2ccc(Cl)s2)CCOCC1 | -5.64%
15 | Cn1cc(C2NC3(CCCC3)C(=O)N2CC2CC2)c(=O)n(C)c1=O (configuration not stated) | -5.99%
16 | Cc1nc(C)c(CNC(=O)N2CCc3ccccc3C2CO)s1 (configuration not stated) | -1.94%
17 | CCC(=O)N1CCC(NC(=O)c2cccc(-n3ccnc3)c2)C1 (configuration not stated) | -8.46%
18 | Cc1cc(CNC(=O)N2CCc3ccccc3C2CO)c(C)o1 (configuration not stated) | -5.72%
19 | CC(=O)c1ccc(CNC(=O)c2cc(C)nn2C)nc1C | 3.42%
20 | Cc1nc(C(=O)N2CCN(C(C)c3ccccc3F)CC2)cs1 (configuration not stated) | -1.44%
21 | Cc1ccc(CC(=O)N2CCN(C(C)c3ccccc3F)CC2)cn1 (configuration not stated) | -2.9%
22 | O=C(CCc1ccsc1)Nc1cnccc1O | -6.71%
23 | CC(NC(=O)Cn1cccnc1=O)c1ccc(C(F)(F)F)cc1 (configuration not stated) | 12%
24 | NC(=O)CCCNC(=O)COc1ccccc1C(F)(F)F | -5.37%
25 | CCC(C#N)NC(=O)c1ccc(Oc2cccnc2)cc1 (configuration not stated) | -8.45%
26 | CC1CCCCN1CCNC(=O)NCc1ccc(C#N)cc1F (configuration not stated) | -6.05%

Row | SMILES | cytotoxicity at 70.5 h
27 | CC1CCN(c2nc3c(cnn3-c3ccccc3)c(=O)[nH]2)CC1 | -5.83%
28 | N#Cc1ccc(CNC(=O)NCCNC(=O)C2CCCC2)c(F)c1 | 13.4%
29 | Cc1nc(C2CCCN(C(=O)CN3CCCNC3=O)C2)sc1C (configuration not stated) | -8.3%
30 | CNc1nc(CNC(=O)Nc2ccc(OC(C)C)cc2C)cs1 | -2.53%
31 | O=C(O)c1ccc(CCNC(=O)C2(c3ccccc3)CC2)cc1 | 12.5%
32 | N#CCSCCCN1CCN(C(=O)C2CCCC2)CC1 | -5.88%
33 | Cc1[nH]c2ccccc2c1CCNC(=O)N1CCC2(C1)OCCO2 | -17.8%
34 | CCc1nc(C2CCCN2C(=O)CCCOc2cccc(F)c2)no1 (configuration not stated) | -18.6%
35 | CC(c1ccccc1F)N1CCN(C(=O)Cc2ccncc2)CC1 (configuration not stated) | -11.8%
36 | Cc1nc(C2CCCN2C(=O)CCCOc2ccccc2C)no1 (configuration not stated) | -8.51%
37 | CCC(C)(NCC(=O)N(c1ccccc1)C(C)C)c1nc(C)cs1 (configuration not stated) | 2.38%
38 | CC(=O)N(Cc1ncc(C)o1)C1CCN(CCNC2CCCCC2)C1 (configuration not stated) | 9.67%
39 | O=C(CCn1ccccc1=O)Nc1ccc(F)c(Cl)c1 | -11.7%
40 | Cn1c(Nc2cn[nH]c2)c(C#N)c(=O)n(C)c1=O | 11.5%
41 | CCN(CC)c1ccc(C(=O)NCc2cccnc2-n2cncn2)cn1 | -10.7%
42 | Cc1ccccc1OCCC(=O)OC(C)C(=O)Nc1sccc1C(N)=O (configuration not stated) | -7.64%
43 | COc1cccc(CNC(CN2CCN(C)CC2)c2ccccc2)c1 (configuration not stated) | 5.01%
44 | Cc1ccc(CNC(CN2CCN(C)CC2)c2ccccc2)cc1 (configuration not stated) | 3.21%
45 | C[S+]([O-])c1nncn1CC(=O)c1cccc(Cl)c1 (configuration not stated) | -7.53%
46 | C[S+]([O-])c1nncn1CC(=O)c1ccc2c(c1)CCO2 (configuration not stated) | -2.98%
47 | CC1CN=C(N2CCN(C(=O)Nc3nc(-c4ccccc4)ns3)CC2)S1 (configuration not stated) | 9.01%
48 | Cc1ccc(NC(=O)NC(C)c2nc[nH]n2)cc1 (configuration not stated) | -5.24%
49 | CC(C)(C)N1CCCN(C(=O)c2csc(S(N)(=O)=O)c2)CC1 | 15.7%
50 | Cc1cnc(CN2CCC(N(C)Cc3nnc(C4CC4)n3C)C2)cn1 (configuration not stated) | -11%
51 | CCCN1CCC(N(Cc2ncc(C)o2)C(C)=O)C1 (configuration not stated) | -8%
52 | CN(C)C(CNC(=O)NCCc1cccc(O)c1)c1ccco1 (configuration not stated) | -5.87%

Row | SMILES | cytotoxicity at 70.5 h
53 | O=C(CCc1cc(F)ccc1F)NS(=O)(=O)c1ccc2c(c1)OCCO2 | 0.522%
54 | O=C(CCc1c(F)cccc1F)NS(=O)(=O)c1ccc2c(c1)OCCO2 | -6.92%
55 | O=C(CCc1ccccc1Br)NS(=O)(=O)c1ccc2c(c1)OCCO2 | -1.54%
56 | Cc1cn2nc(N3CCN(Cc4c(C)noc4C)CC3)sc2n1 | 0.994%
57 | Cc1cn2nc(N3CCN(Cc4nc(C(C)C)no4)CC3)sc2n1 | 19.7%
58 | COc1ccccc1C(=O)N1CCN(C(=O)Cc2ccccn2)CC1 | -6.85%
59 | Cc1ccc(C(=O)N2CCN(C(=O)Cc3ccccn3)CC2)c(C)c1 | -5.32%
60 | Cc1ccc(-c2nc(CN3CCCC(C(=O)N(C)C)C3)cs2)o1 (configuration not stated) | 1.88%
61 | Cc1nccn1C1CCCN(C(=O)CCNc2ncccn2)C1 (configuration not stated) | -3.44%
62 | CCc1nc(CN2CCCN(CC(O)c3ccccc3)CC2)no1 (configuration not stated) | -8.08%
63 | Cc1nn(C)c(N(C)C)c1CNCc1ccnc(N2CCCCC2)c1 | -2.08%
64 | CCC(O)CN1CCN(C(=O)c2ccn(C)c(=O)c2)CC1 (configuration not stated) | -9.11%
65 | COCc1nc(C(=O)N2CCCC2c2cc(C)on2)cs1 (configuration not stated) | -9.83%
66 | CCOc1cccc(C(=O)N2CCC(c3n[nH]c(C4CC4)n3)CC2)c1 | -8.11%
67 | CC(NC(=O)NCCCN(C)S(C)(=O)=O)c1cccnc1 (configuration not stated) | -7.17%
68 | COCc1nc(C(=O)N2CCCC2c2noc(C)n2)cs1 (configuration not stated) | -9.63%
69 | Cc1nn(C)c(N(C)C)c1CNCc1ccnc(N2CCCC2)c1 | -4.33%
70 | O=C(CCc1nccs1)N1CCCC(n2ccnc2)C1 (configuration not stated) | -11.8%
71 | CS(=O)(=O)NCCCNC(=O)NCc1ccccc1 | -8.73%
72 | CC(=O)Nc1nc(C(=O)NCc2ccc(N3CCOC(C)C3)nc2)cs1 (configuration not stated) | -7.71%
73 | CC(=O)Nc1nc(C(=O)NCc2ccnc(N3CCCC3)c2)cs1 | -6.6%
74 | CC(=O)Nc1nc(C(=O)NCc2ccc(N3CCCC3)nc2)cs1 | -7.65%
75 | CC(NC(=O)NCCCN(C(C)C)S(C)(=O)=O)c1ccncc1 (configuration not stated) | -2.51%
76 | Cc1cccc(C(=O)NCc2ccc(N3CCCCCC3)nc2)n1 | -6.26%
77 | CC(NC(=O)NCCCN(C)S(C)(=O)=O)c1ccc(Cl)cc1 (configuration not stated) | -7.7%
78 | Cc1ccc(CNC(=O)CCNS(C)(=O)=O)cc1 | -5.54%

Row | SMILES | cytotoxicity at 70.5 h
79 | COc1ccc(CNC(=O)NCCCNS(C)(=O)=O)cc1OC | -8.21%
80 | CN(C)c1ccc(C(=O)N2CCC(c3n[nH]c(C4CC4)n3)CC2)cc1 | -6.1%
81 | COc1cc(Cl)ccc1C(=O)NCc1nncn1C | -6.32%
82 | CCc1cccc(N2CCC(NC(=O)c3ccco3)CC2)c1 | -3.29%
83 | O=C(c1ccc2c(c1)CCC2)N1CCC(c2n[nH]c(C3CC3)n2)CC1 | -7.78%
84 | CC(=O)Nc1nc(C(=O)NCc2ccc(N3CCCCC3)cc2)cs1 | -3.91%
85 | Cc1cc(C)n(C2CN(CC(=O)NC(C3CC3)C3CC3)C2)n1 | -3.88%
86 | Cc1cc(C)n(C2CN(CCC(=O)NC3CCCCC3)C2)n1 | -4.9%
87 | Cc1cc(C)n(CC2CCCN2C(=O)c2cnccn2)n1 (configuration not stated) | 14.8%
88 | COc1ccccc1NC(=O)NCC(O)c1ccc(F)cc1F (configuration not stated) | 17.3%
89 | CCOc1c(Br)cc(/C=C/c2ncc(C(=O)O)s2)cc1OC | -11.1%
90 | Cn1cc(C(=O)NCC2CCN(C(=O)NC3CC3)CC2)cn1 | -19.1%
91 | Cc1cnn(C2CCCN(C(=O)c3ccc(Cn4ccnc4)cc3)C2)c1 (configuration not stated) | 17.4%
92 | COC(=O)C(c1cc(F)ccc1F)N(C)C(=O)c1cnc(C)cn1 (configuration not stated) | -9.59%
93 | Cc1ccc(NC2CCN(C(=O)COc3ccccc3)CC2)nn1 | -15.7%
94 | Cc1ccc(NC2CCN(C(=O)COC3CCCC3)CC2)nn1 | -8.07%
95 | Cc1cc(NC(=O)CCN2CCCCC2Cn2cccn2)no1 (configuration not stated) | -11.9%
96 | COCCc1noc(CN2CCCC(Cn3cncn3)C2)n1 (configuration not stated) | -7.84%
97 | CCOc1ccc(C(=O)N2CCCCC2Cn2nc(C)cc2C)cn1 (configuration not stated) | 21%
98 | Cc1nn(C)c(C)c1C1CCCN1CC(=O)NCc1ccccn1 (configuration not stated) | -5.71%
99 | Cc1cc(C(=O)N2CCCC(n3cncn3)C2)nn1C (configuration not stated) | -10.8%
100 | Cc1cc(NC(=O)CCN2CCCC2Cn2cccn2)no1 (configuration not stated) | -6.26%
101 | Cc1nn(C)c(Cl)c1C1CCCN1Cc1ccccn1 (configuration not stated) | -7.44%
102 | CCCNCc1cn(C)nc1-c1cccnc1 | -7.26%
